Data: patent US9902986B2, “Enterobactin conjugates and uses thereof” (Massachusetts Institute of Technology, priority 2013, dated 2018)

Key:
Assay type in all cases: cell-based, Escherichia coli
E. coli CFT073 [1] = assay: Competition assay with native siderophores, E. coli CFT073; conditions: conjugate 100 nM, varied Ent, MGE or DGE, 50% MHB, 200 μM DP, 30° C., t=19 h
Protocol: These assays were performed following the general procedure described herein except that varying concentrations of Ent, MGE, or DGE, each of which was unmodified, were mixed with Ent-Amp, Ent-Amx, MGE-Amp, MGE-Amx, DGE-Amp, or DGE-Amx. Ent was synthesized following a literature procedure^55 and stored as DMSO stock solution at −20° C. MGE and DGE were prepared from Ent using MceC and IroB as described for MGE-PEG3-N3 and DGE-PEG3-N3.
(§1) In another exemplary experiment, select conjugates (Ent-Amp, MGE-Amp, and DGE-Amp) with select native siderophores (Ent, MGE, and DGE) were tested against the uropathogenic strain E. coli CFT073 in 50% MHB, t=19 h, 30° C. 2,2′-dipyridyl (DP, 200 μM) was added to provide conditions of iron limitation. The concentration of the conjugates was fixed at 100 nM and the concentration of the native siderophores was varied.
as §1, with “(Ent-Amx, MGE-Amx,” for “(Ent-Amp, MGE-Amp,”, “DGE-Amx)” for “DGE-Amp)”, “DP (200” for “2,2′-dipyridyl (DP, 200”

E. coli CFT073 [2] = assay: Antimicrobial activity assay, E. coli CFT073; conditions: for effect of preloading Fe(III) on antibacterial activity: Fe(III)-loaded versus apo conjugates; for concentration providing complete growth inhibition: 200 μM DP (iron-deficient)
Protocol: (§2) Overnight cultures of the bacterial strains were prepared by inoculating 5 mL of LB with the bacterial freezer stocks and the cultures were incubated at 37° C. in a tabletop incubator shaker set at 150 rpm. The overnight culture grew to saturation and was diluted 1:100 into 5 mL of fresh LB medium containing DP (200 μM) and incubated at 37° C. with shaking at 150 rpm until OD600 reached 0.6. The cultures were subsequently diluted to an OD600 value of 0.001 in 50% MHB medium (11.5 g/L) with or without DP (200 μM). No antibiotic marker was included in these cultures. A 90-μL aliquot of the diluted culture was combined with a 10-μL aliquot of a 10× solution of the tested compounds in a 96-well plate, which was wrapped in […] and incubated at 30° C. with shaking at 150 rpm for 19 h. Bacterial growth was determined by measuring OD600 using a BIOTEK SYNERGY HT plate reader. Each well condition was prepared in duplicate, and at least three independent replicates were conducted on different days. The resulting mean OD600 are reported and the error bars are the standard deviation.
In another exemplary experiment, antibacterial activities of the conjugates were tested against E. coli CFT073 in 50% MHB at 30° C., t=19 h. DP (200 μM) was added to provide conditions of iron limitation.
In another exemplary experiment, antibacterial activities of Fe(III)-loaded or apo Ent-β-lactam conjugates (Ent-Amp and Ent-Amx) and their glucosylated derivatives (MGE-Amp, MGE-Amx, DGE-Amp, and DGE-Amx) against the uropathogenic strain E. coli CFT073 were tested in 50% MHB, 30° C., t=19 h. 2,2′-dipyridyl (DP, 200 μM) was added to provide conditions of iron limitation.

E. coli UTI89 [3] = assay: Competition assay with native siderophores, E. coli UTI89; conditions: conjugate 100 nM, varied Ent, MGE or DGE, 50% MHB, 200 μM DP, 30° C., t=19 h
Protocol: Ent was synthesized following a literature procedure^55 and stored as DMSO stock solution at −20° C. MGE and DGE were prepared from Ent using MceC and IroB as described for MGE-PEG3-N3 and DGE-PEG3-N3.
(§3) In an exemplary experiment, select conjugates (Ent-Amp, MGE-Amp, and DGE-Amp) with select native siderophores (Ent, MGE, and DGE) were tested against the uropathogenic strain E. coli UTI89 in 50% MHB, t=19 h, 30° C. […] The concentration of the conjugates was fixed at 100 nM, and the concentration of the native siderophores was varied. […] These observations indicate that Ent, MGE, Ent-Amp, and MGE-Amp may enter via both FepA and IroN with different efficiency, but DGE and DGE-Amp may only enter via IroN.
as §3, with “In another” for “In an”, “100 nM” for “100 nM,”

E. coli UTI89 [4] = assay: Antimicrobial activity assay, E. coli UTI89; conditions: 50% MHB, 200 μM DP (iron-deficient), 30° C., t=19 h
Protocol: No antibiotic marker was included in these cultures. […] Bacterial growth was determined by measuring OD600 using a BIOTEK SYNERGY HT plate reader. Each well condition was prepared in duplicate, and at least three independent replicates were conducted on different days. The resulting mean OD600 are reported and the error bars are the standard deviation.
In another exemplary experiment, antibacterial activities of the conjugates were tested against E. coli UTI89 in 50% MHB at 30° C., t=19 h. […] Under iron-deficient conditions, Ent-Amp, MGE-Amp, and DGE-Amp provided a complete growth inhibition at 100 nM.

[5] = test system: mixed culture of E. coli K-12 and E. coli UTI89; assay: Mixed culture assay, E. coli K-12 and E. coli UTI89; conditions: iron-deficient conditions (200 μM DP), 50% MHB, 30° C., t=19 h
Text: No antibiotic marker was included in these cultures.

E. coli B = assay: Antimicrobial activity assay, E. coli B; conditions: 50% MHB, 30° C., t=19 h
Protocol: as §2
In another exemplary experiment, antibacterial activities of the conjugates were tested against E. coli B in 50% MHB at 30° C., t=19 h. DP (200 μM) was added to provide conditions of iron limitation.

E. coli K-12 = assay: Antimicrobial activity assay, E. coli K-12; conditions: for concentrations at which E. coli K-12 was inhibited: inhibition attributed to iron deprivation
Protocol: as §2
In an exemplary experiment, antibacterial activities of the conjugates were tested against E. coli K-12 in 50% MHB at 30° C., t=19 h. 2,2′-dipyridyl (DP, 200 μM) was added to provide conditions of iron limitation.

[6] = 50% MHB, 200 μM DP, 30° C., t=19 h

| Structure (SMILES) | attenuation of antibacterial activity by native siderophores (E. coli CFT073 [1]) | effect of preloading Fe(III) on antibacterial activity (E. coli CFT073 [2]; [6]) | attenuation of antibacterial activity by native siderophores (E. coli UTI89 [3]) | concentration providing complete growth inhibition (E. coli UTI89 [4]) | growth inhibition in mixed culture at 100 nM [5] | concentration providing complete growth inhibition (E. coli CFT073 [2]; 50% MHB, 30° C., t=19 h) | antibacterial activity at 100 nM (E. coli B; 200 μM DP) | antibacterial activity, comparison (E. coli B; 200 μM DP) | antibacterial activity at 100 nM (E. coli K-12; [6]) | antibacterial activity, comparison (E. coli K-12; [6]) | concentrations at which E. coli K-12 was inhibited (E. coli K-12) | improved antibacterial activity against E. coli CFT073 over E. coli K-12 (E. coli CFT073 [2]; CFT073 (FepA and IroN) versus K-12 (FepA only)) | concentration at which growth inhibition was observed (attributed to iron deprivation) (E. coli B; 200 μM DP) | concentration at which growth inhibition was observed (attributed to iron deprivation) (E. coli K-12; [6]) | concentration providing complete growth inhibition for both strains [5] | antibacterial activity at 10 nM (E. coli CFT073 [2]; 10 nM, 50% MHB, 200 μM DP, 30° C., t=19 h) | concentration providing complete growth inhibition (E. coli B; 200 μM DP (iron-deficient)) | concentration providing complete growth inhibition (E. coli K-12; 50% MHB, 200 μM DP (iron-deficient), 30° C., t=19 h) |
| --- | --- | --- | --- | --- | --- | --- | --- | --- | --- | --- | --- | --- | --- | --- | --- | --- | --- | --- |
| CC1(C)SC2C(NC(=O)C(NC(=O)CCCc3cn(CCOCCOCCOCCNC(=O)c4cc(O)c(O)c(C(=O)NC5COC(=O)C(NC(=O)c6cccc(O)c6O)COC(=O)C(NC(=O)c6cccc(O)c6O)COC5=O)c4)nn3)c3ccc(O)cc3)C(=O)N2C1C(=O)O (stereo not drawn) [Ent-Amx] | only attenuated in the presence of Ent or MGE | no effect | only attenuated in the presence of Ent or MGE | – | – | – | – | – | – | – | – | – | – | – | – | – | – | – |
| CC1(C)SC2C(NC(=O)C(NC(=O)CCCc3cn(CCOCCOCCOCCNC(=O)c4cc(O)c(O)c(C(=O)NC5COC(=O)C(NC(=O)c6cc(C7OC(CO)C(O)C(O)C7O)cc(O)c6O)COC(=O)C(NC(=O)c6cccc(O)c6O)COC5=O)c4)nn3)c3ccccc3)C(=O)N2C1C(=O)O (stereo not shown) [MGE-Amp] | attenuated by Ent, MGE, and DGE | no effect | attenuated by Ent, MGE, or DGE | 100 nM | only inhibited the growth of E. coli UTI89 | 10 nM | inactive | more active against the bacteria than DGE-Amp | inactive | more active against the bacteria than DGE-Amp | micromolar concentrations | – | – | – | – | – | – | – |
| CC1(C)SC2C(NC(=O)C(NC(=O)CCCc3cn(CCOCCOCCOCCNC(=O)c4cc(O)c(O)c(C(=O)NC5COC(=O)C(NC(=O)c6cc(C7OC(CO)C(O)C(O)C7O)cc(O)c6O)COC(=O)C(NC(=O)c6cc(C7OC(CO)C(O)C(O)C7O)cc(O)c6O)COC5=O)c4)nn3)c3ccccc3)C(=O)N2C1C(=O)O (stereo not shown) [DGE-Amp] | attenuated by Ent, MGE, and DGE | no effect | attenuated by Ent, MGE, or DGE | 100 nM | only inhibited the growth of E. coli UTI89 | 10 nM | inactive | – | inactive | – | micromolar concentrations | 100 fold | 10 µM | 10 µM | – | – | – | – |
| CC1(C)SC2C(NC(=O)C(NC(=O)CCCc3cn(CCOCCOCCOCCNC(=O)c4cc(O)c(O)c(C(=O)NC5COC(=O)C(NC(=O)c6cccc(O)c6O)COC(=O)C(NC(=O)c6cccc(O)c6O)COC5=O)c4)nn3)c3ccccc3)C(=O)N2C1C(=O)O (stereo not drawn) [Ent-Amp] | only attenuated in the presence of Ent and MGE | no effect | only attenuated in the presence of Ent or MGE | 100 nM | – | – | – | – | – | – | – | – | – | – | 100 nM | slightly less active | 100 nM | 100 nM |
